From patent US4652560A, “A-deoxy-a-aza derivatives of clavulanic acid, a process for their preparation and their use” (Beecham Group p.l.c., priority 1979, dated 1987)

Tested on: E coli JT39
Experiment: Antibacterial Activity, standard MIC test
Type: cell-based
Conditions: Escherichia coli, compound alone
Source text: Using conventional methods the following results were obtained in a standard MIC test: […]

O=C(O)CCCCCCCCCCNC/C=C1\O[C@@H]2CC(=O)N2[C@H]1C(=O)O [11 (b), 9-N-(10'-Carboxydecyl)aminodeoxyclavulanic acid]
MIC: > 500 mg/L
